The GI50 is the concentration that inhibits growth by half. For orientation: TGI means the concentration giving total growth inhibition.

Test in all cases: DTP human tumour cell line panel, 48 h
The test system of experiment [1] is HOP-92 NSCLC.
Experiment [2] relates to SNB-19 CNS.
Experiment [3] relates to SK-MEL-5 melanoma.
In experiment [4] the test system is HCT-116 colon.
In experiment [5] the test system is HL-60(TB) leukemia.
For experiment [6], the system named is OVCAR-4 ovarian.
The test system of experiment [7] is MCF7 breast.
The test system of experiment [8] is HOP-62 NSCLC.
Experiment [9] has as its system SF-268 CNS.
The subject of experiment [10] is SF-295 CNS.

Molecules are shown by their SMILES. Where “and” joins values, the source holds several entries; their conditions need not be identical. Equal values may be shown once.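 In this assay, cells in 96-well plates receive the compound at five concentrations for 48 hours. Endpoints are linearly interpolated between the surrounding concentrations. Here, GI50 denotes the concentration required for 50% inhibition of growth. TGI denotes the concentration required for complete inhibition of growth.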 A value given as a limit tells only on which side of the number the result lay.

For the compound `COc1cccc2c1C(=O)c1c(O)c3c(c(O)c1C2=O)CC(O)(C(C)=O)CC3OC1CC(N)C(O)C(C)O1` (stereo unspecified), the GI50 is 0.0155 µg/mL in experiment [1]; 0.0198 µg/mL in experiment [2]; 0.0193 µg/mL in experiment [3]; 0.0742 µg/mL in [6]; 0.0221 µg/mL in experiment [8]; 0.0286 µg/mL in experiment [10]. In addition, the TGI in experiment [1] came out at 0.413 µg/mL; in experiment [2], 2.11 µg/mL; in [3], 0.0525 µg/mL; in [4], 2.06 µg/mL; in [5], 0.0356 µg/mL; in experiment [6] it was 0.692 µg/mL. Further, the TGI in experiment [7] was 0.484 µg/mL; in [8] it was 2.08 µg/mL; in [9], 0.262 µg/mL; in experiment [10] it was 0.168 µg/mL.
With `Cc1c2cnccc2c(C)c2c1c1cc(C3OCCCO3)ccc1n2C`, the GI50 is 0.281 µM in experiment [1]; 0.295 µM in experiment [2]; 0.379 µM in experiment [3]; 0.0472 µM in experiment [4]; 0.375 µM in experiment [5]; 0.264 µM in experiment [6]. The GI50 in experiment [7] was 0.255 µM; in experiment [8], 0.286 µM; in experiment [9] it was 0.268 µM; in [10], 0.348 µM. Further, the TGI in [1] came to 1.66 µM; in experiment [2], 2.97 µM; in experiment [3], 1.44 µM; in experiment [4], 1.05 µM; in experiment [5], 1.77 µM; in [6], 1.12 µM. Besides, the TGI in experiment [7] stood at 1.35 µM; in experiment [8], 1.82 µM; in experiment [9], 1.71 µM; in experiment [10] it was 1.9 µM.
Regarding `CN(C)CCCOc1ccccc1NC1=C(Cl)C(=O)C(Nc2ccccc2OCCCN(C)C)=C(Cl)C1=O`, the GI50 in experiment [1] is 1.33 µM; in experiment [2] it was 1.57 µM; in experiment [3], 1.35 µM; in experiment [4] it was 0.183 µM; in [5], 0.244 µM; in experiment [6], 0.136 µM. In addition, the GI50 in experiment [7] is 0.175 µM; in experiment [8] it was 1.66 µM; in experiment [9] it was 1.03 µM; in [10], 1.53 µM. Further, the TGI in [1] was found to be 2.82 µM; in experiment [2], 3.02 µM; in experiment [3], 2.65 µM; in [4] it was 0.356 µM; in [5] it was 0.656 µM; in experiment [6], 0.265 µM. Further, the TGI is 0.398 µM in experiment [7], 3.31 µM in experiment [8], 2.61 µM in [9] and 2.9 µM in [10].
On to `O=C(O)CSCc1cccc2ccccc12`, for which the TGI in experiment [1], in [2], in experiment [3], in [4], in experiment [5] and in experiment [6] was over 100 µM in each case. Moreover, the TGI in [7], in experiment [8], in experiment [9] and in experiment [10] was over 100 µM in each case.
For the compound `CNC(=O)c1cc(COc2nnc(Nc3ccc(Cl)cc3)c3ccoc23)ccn1`, the GI50 in experiment [1] was 2.9 µM and 3.78 µM; in experiment [2] it was 2.88 µM and > 10 µM; in [3] it was 7.66 µM and 7.85 µM; in experiment [4] it was 3.32 µM and > 10 µM; in experiment [5], over 100 µM; in experiment [6] it was 2.87 µM and 3.16 µM. Besides, the GI50 in experiment [7] was 7.17 µM and > 10 µM; in [8] it was 3.31 µM and 9.48 µM; in experiment [9] it was 4.66 µM and > 10 µM; in experiment [10], 6.39 µM and > 10 µM. Besides, the TGI in [1] was 14.4 µM and > 10 µM; in [2], 21.4 µM and > 10 µM; in [3], over 47.1 µM; in experiment [4], 11.3 µM and > 10 µM; in experiment [5], over 100 µM; in experiment [6], 11.7 µM and > 10 µM. Further, the TGI was 36.1 µM and > 10 µM in experiment [7]; 16 µM and > 10 µM in [8]; 26.2 µM and > 10 µM in experiment [9]; 24.9 µM and > 10 µM in experiment [10].
Consider `COC1=CC(c2ccc[nH]2)=N/C1=C\c1[nH]c(C)c(C(=O)OCc2ccccc2)c1C`, for which the GI50 is 0.0671 µM in [1]; 0.606 µM in [2]; 0.0476 µM in experiment [3]; 0.0321 µM in experiment [4]; 0.328 µM in experiment [5]; 0.0756 µM in [6]. Besides, the GI50 in experiment [7] is 0.0894 µM; in experiment [8], 0.314 µM; in experiment [9], 0.11 µM; in [10], 0.17 µM. Besides, the TGI came out at 0.431 µM in experiment [1]; 29.2 µM in experiment [2]; 0.177 µM in experiment [3]; 1.16 µM in [4]; 20.2 µM in [5]; 5.71 µM in [6]. Besides, the total growth inhibition concentration (TGI) in experiment [7] turned out to be 0.836 µM; in experiment [8] it was 2.77 µM; in experiment [9], 1.94 µM; in [10], 0.827 µM.
For the compound `COc1cc2c(cc1OC)C13CCN4C=C5CCOC6CC(=O)N2C1C6C5CC43` (stereo unspecified), the TGI in experiment [1], in [2], in experiment [3], in [4], in [5] and in experiment [6] was over 100 µM in each case. The TGI in experiment [7], in experiment [8], in experiment [9] and in [10] was over 100 µM in each case.
As to `COC(=O)[C@@H](NC(=O)NC(=O)NC(=O)CI)C(C)C`, the GI50 was 2.7 µM in experiment [1]; 18.8 µM in experiment [2]; 17.4 µM in experiment [3]; 12.2 µM in experiment [4]; 1.7 µM in experiment [5]; 3.19 µM in [6]. Moreover, the GI50 is 3.03 µM in experiment [7], 18.3 µM in experiment [8], 15.1 µM in [9] and 17.9 µM in [10]. The TGI came to 7.36 µM in experiment [1]; 37.7 µM in [2]; 31.6 µM in experiment [3]; 24.6 µM in experiment [4]; 3.86 µM in experiment [5]; 13.7 µM in experiment [6]. For the same compound, the TGI worked out at 12.7 µM in experiment [7], 33.7 µM in experiment [8], 32.7 µM in experiment [9] and 40.6 µM in experiment [10].
With `Cc1ccccc1NC(=S)Nc1ccccn1`, the GI50 is 10.6 µM in experiment [1]; over 100 µM in [2]; 47.2 µM in experiment [3]; over 100 µM in [4]; over 100 µM in experiment [5]; 72.5 µM in experiment [6]. The GI50 in experiment [7], in experiment [8], in experiment [9] and in experiment [10] was over 100 µM each time. The TGI in experiment [1], in experiment [2], in [3], in experiment [4], in [5] and in experiment [6] was over 100 µM in each case. For the same compound, the TGI in experiment [7], in experiment [8], in experiment [9] and in experiment [10] was over 100 µM in each case.

The values above are taken from PubChem BioAssay (NCI).
